Source: the Kinase Knowledgebase extract (Sharma et al. 2016)

Target: MAPK14;MAPK11;MAPK12 (human) (UniProt Q16539)
Assay: Inhibition of p38 Kinase Activity

IC50, < 30000 nM:
CONC(=O)c1ccc(C)c(Oc2nc(NCc3ccccn3)nc(N(C)CC(C)(C)C)n2)c1

IC50, < 1000 nM:
Cc1ccc(C(=O)NCC(F)(F)F)cc1Nc1nc(N[C@H]2CCNC2)nc(N(C)CC(C)C)n1
Cc1ccc(C(N)=O)cc1Nc1nc(N[C@H]2CCCC[C@H]2NC(C)C)nc(N(C)CC(C)(C)C)n1
CCONC(=O)c1ccc(C)c(Nc2nc(N[C@H]3CCNC3)nc(N(C)CC(C)C)n2)c1
CCOC(=O)Nc1ccc(C)c(Nc2nc(NCCN3CCCC3)nc(N(C)CC(C)(C)C)n2)c1
CC(=O)Nc1ccc(C)c(Nc2nc(N[C@H]3CCNC3)nc(N(C)CC(C)(C)C)n2)c1
Cc1ccc(C(=O)NC2CCCC2)cc1Nc1nc(N[C@H]2CCNC2)nc(N(C)CC(C)(C)C)n1
Cc1ccc(-c2nnco2)cc1Nc1nc(N[C@@H]2CCNC2)nc(N(C)CC(C)(C)C)n1
CONC(=O)c1ccc(C)c(Nc2nc(NCCN3CCCC3)nc(N(C)CC(C)(C)C)n2)c1
Cc1ccc(C(N)=O)cc1Nc1nc(N[C@H]2CCN(Cc3ccncc3)C2)nc(N(C)CC(C)C)n1
CCNC(=O)c1ccc(C)c(Nc2nc(N[C@@H]3CCN(C4=CC(=O)CC(C)(C)C4)C3)nc(N(C)CC(C)(C)C)n2)c1
COC(=O)Nc1ccc(C)c(Nc2nc(N[C@H]3CCNC3)nc(N(C)CC(C)(C)C)n2)c1
Cc1ccc(C(N)=O)cc1Nc1nc(N[C@H]2CCNC2)nc(N(C)CC2CCCC2)n1
CNc1nc(Nc2cc(C(N)=O)ccc2C)nc(N[C@H]2CCNC2)n1
Cc1ccc(S(N)(=O)=O)cc1Nc1nc(N[C@H]2CCNC2)nc(N(C)CC(C)(C)C)n1
CONC(=O)c1ccc(C)c(Nc2nc(N(C)C)nc(N(C)CC(C)(C)C)n2)c1
CC(C)CN(C)c1nc(NC2CCN(CC3CCNCC3)C2)nc(NC2CC(C(N)=O)CCC2C)n1 (stereo unspecified)
Cc1ccc(C(N)=O)cc1Nc1nc(N[C@@H]2CCNC2)nc(N2CCC(C)(C)CC2)n1
CONC(=O)c1ccc(C)c(Nc2nc(NCCCN3CCCC3)nc(N(C)CC(C)(C)C)n2)c1
Cc1ccc(C(N)=O)cc1Nc1nc(N[C@H]2CCNC2)nc(N(C)C[C@@H]2CC[C@H]3C[C@H]2C3(C)C)n1
Cc1ccc(C(N)=O)cc1Nc1nc(NCC2CCC2)nc(N[C@H]2CCNC2)n1
Cc1ccc(C)c(CN2CC[C@H](Nc3nc(Nc4cc(C(N)=O)ccc4C)nc(N(C)CC(C)C)n3)C2)c1
Cc1ccc(C(N)=O)cc1Nc1nc(N[C@H]2CONC2=O)nc(N(C)CC(C)(C)C)n1
Cc1ccc(C(N)=O)cc1Nc1nc(N[C@H]2CCN(Cc3ccc(F)cc3)C2)nc(N(C)CC(C)C)n1
Cc1ccc(C(N)=O)cc1Nc1nc(N[C@@H]2CCN(C(C)CO)C2)nc(N(C)CC(C)(C)C)n1 (stereo partly specified)

IC50, < 10000 nM:
COCC(=O)N(C)CCCN(C)c1nc(NCC(C)c2ccccc2)nc(Nc2ccc3ncsc3c2)n1 (stereo unspecified)
CC1(C)C2CCC(CNc3nc(Nc4ccc5ncoc5c4)nc(N4CCNCC4)n3)C1C2 (stereo unspecified)
CC(CNc1nc(Nc2ccc3ncsc3c2)nc(N2CC3CC2CN3S(=O)(=O)N(C)C)n1)c1ccccc1 (stereo unspecified)
CC(CNc1nc(Cl)nc(Nc2ccc3ncsc3c2)n1)c1ccc(Cl)cc1 (stereo unspecified)
CCCc1nc(NCc2ccc(S(N)(=O)=O)cc2)nc(Nc2cccc(-c3ccccc3)c2)n1
CNc1nc(NCc2ccccc2OC)nc(Nc2ccc3ncsc3c2)n1
CNC1CCN(c2cc(NCCOC(C)C)nc(-n3cnc4cc(C)ccc43)n2)C1 (stereo unspecified)
Cc1ccccc1NC(=S)N(C)CCCN(C)c1nc(NCC(C)c2ccccc2)nc(Nc2ccc3ncsc3c2)n1 (stereo unspecified)
C[C@H](CNc1ncnc(Nc2ccc3ncsc3c2)n1)c1ccccc1
CC(CNc1nc(Nc2ccc3ncsc3c2)nc(N2CCN(C(=O)c3ccc(-c4ccccc4)cc3)CC2)n1)c1ccccc1 (stereo unspecified)
CC(=O)N(C)CCCN(C)c1nc(NCC(C)c2ccccc2)nc(Nc2ccc3ncsc3c2)n1 (stereo unspecified)
